We go through 6 compounds from US11654196B2, “Dosing regimens for echinocandin class compounds” (priority 2012, dated 2023).

Data set [1] can be described thus: Pharmacokinetics (oral bioavailability) following oral administration in beagle dogs. The format is in vivo. More on the design: key to Improvement (ratio of % oral bioavailability to saline): NI = no improvement in oral bioavailability in comparison to saline. To be noted: for % BA in saline: oral about 7-10 mg/kg, formulation 11 (saline). The method, then:
Echinocandin class compounds were administered to beagle dogs weighing approximately 6-10 kg. Each animal received the appropriate prepared test article in a single oral capsule dose at a target dose level of about 7-10 mg/kg. Immediately after dosing, each animal was offered 20 mL-30 mL of water orally (Groups 1-4) or 30 mL of water orally to assist in swallowing the capsule.
Animals were treated and blood samples were drawn and analyzed as provided in Example 1.
The bioavailability of each oral dose formulation was estimated by comparison to intravenous plasma concentration data in dogs from Example 1. The results provided in Table 3 show the oral bioavailability for the echinocandin class compound in saline (formulation 11), and the improvement over saline with the use of a formulation of the invention.

Data set [2] in a line: Pharmacokinetics following intravenous administration in beagle dogs. The format is in vivo. To be noted: 1.4 mg/kg IV slow bolus. The procedure:
Echinocandin class compounds were administered to beagle dogs weighing approximately 6-10 kg. Each compound was dosed at 1.4 mg/kg in aqueous saline (with or without 0.5% Tween) over course of 1-10 minutes. […] The dogs were fasted at least 12 hours prior to each dosing and offered food after the 4-hour blood sample was taken; water was withheld for 1 hour prior to and 4 hours following each dosing event. The dose for each animal was based on its most recent body weight. The test article was injected intravenously via a catheter placed in the cephalic vein as a slow bolus.
Blood was collected via the jugular vein. All blood samples (1 mL each) were collected into K3EDTA tubes. Following blood collection, the samples were immediately inverted several times and were held on wet ice pending centrifugation. The samples were centrifuged within 30 minutes of collection under refrigeration (˜5° C. for 10 minutes at 2000 g) to obtain plasma. The plasma was frozen immediately on dry ice after separation. The plasma samples were stored at approximately ˜70° C. until analysis.
Plasma (100 μL) was precipitated with 400 μL of 0.1% formic acid in acetonitrile containing the internal standard (100 ng/mL pneumocandin). The samples were then capped and vortexed for about 30 seconds followed by centrifugation at 14,000 rpm at room temperature for 10 minutes. Following centrifugation 200 μL of supernatant was transferred to plastic autosampler vials containing 200 μL of 0.1% formic acid in water and vortexed. Samples were then analyzed by LCMSMS.
All pharmacokinetic calculations were performed using WinNonlin version 4.1 (Pharsight Corp) by noncompartmental analysis.

The conditions of data set [3]: Mouse, literature values; cited from earlier work.
The conditions of data set [4]: Rat, literature values; cited from earlier work.
The conditions of data set [5]: Rabbit, literature values; cited from earlier work.
The conditions of data set [6]: Man, literature values; cited from earlier work.

Where two headings read alike, the source gives them in different places. *1 amine or outer side, *2 acyl side, *3 side chain or, on linkers, in order; H or OH if unused. Where a SMILES comes first, the peptide text is derived from it. Bridges are numbered along the chain shown (N, C = ends). [ ]: non-standard residue; d: D form. The star is where a group is joined. hTyr(3S-OH,4S-OH,3'-OSO3H) = N[C@H](C(=O)O)[C@H](O)[C@@H](O)c1ccc(O)c(OS(=O)(=O)O)c1; Orn(4R-OH,5R-OH) = O=C([C@H](C[C@@H](O)[C@@H](O)N[*:3])N[*:1])[*:2]; Pro(3S-OH,4S-Me) = C[C@H]1CN[C@H](C(=O)O)[C@H]1O; X1 = CCCCCOc1ccc(-c2cc(-c3ccc(C(=O)*)cc3)no2)cc1; Gln(3R-OH) = NC(=O)C[C@@H](O)[C@H](N)C(=O)O; Hyp = O=C(O)[C@@H]1C[C@@H](O)CN1

As for `CCCCCOc1ccc(-c2ccc(-c3ccc(C(=O)NC4CC(O)C(OCCOCCOC)NC(=O)C5C(O)C(C)CN5C(=O)C(C(C)O)NC(=O)C(C(O)C(O)c5ccc(O)cc5)NC(=O)C5CC(O)CN5C(=O)C(C(C)O)NC4=O)cc3)cc2)cc1` (centres unmarked) [Compound 19], the “% BA in saline” value in data set [1] is listed as 5.74%. The “Improvement (ratio of % oral bioavailability to saline)” value in data set [1] (oral, formulation 1) is reported as “NI”. The “Improvement (ratio of % oral bioavailability to saline)” value in data set [1] (oral, formulation 5) is reported as “NI”. Moreover, in data set [2], the AUC came out at 96100 ng·h/mL, the maximum concentration (Cmax) is reported as 7700 ng/mL, the Mean clearance amounted to 0.202 mL/min/kg and the T1/2 stood at 18.9 h. In data set [2], the “Volume of Distribution” value stood at 0.331 L/kg.
With `CCCCCOc1ccc(-c2ccc(-c3ccc(C(=O)NC4CC(O)C(OCCOCCO)NC(=O)C5C(O)C(C)CN5C(=O)C(C(C)O)NC(=O)C(C(O)C(O)c5ccc(O)cc5)NC(=O)C5CC(O)CN5C(=O)C(C(C)O)NC4=O)cc3)cc2)cc1` (centres unmarked) [Compound 21], the “% BA in saline” value in data set [1] is listed as 4.70%. Besides, in data set [1] (oral, formulation 1), the “% BA” value is listed as “(6.42%)” and the “Improvement (ratio of % oral bioavailability to saline)” value is 1.3. The “Improvement (ratio of % oral bioavailability to saline)” value in data set [1] (oral, formulation 5) is listed as “NI”. Besides, the “Improvement (ratio of % oral bioavailability to saline)” value in data set [1] (oral, formulation 7) was “NI”. In addition, in data set [2], the exposure (AUC) was determined as 113000 ng·h/mL, the Cmax is listed as 6740 ng/mL, the Mean clearance was 0.145 mL/min/kg and the T1/2 came to 28.9 h. The “Volume of Distribution” value in data set [2] is 0.361 L/kg.
As to `CCCCCOc1ccc(-c2ccc(-c3ccc(C(=O)NC4CC(O)C(OCCOCCN)NC(=O)C5C(O)C(C)CN5C(=O)C(C(C)O)NC(=O)C(C(O)C(O)c5ccc(O)cc5)NC(=O)C5CC(O)CN5C(=O)C(C(C)O)NC4=O)cc3)cc2)cc1` (centres unmarked) [Compound 26], the “Improvement (ratio of % oral bioavailability to saline)” value in data set [1] (oral, formulation 5) was “NI”. Further, the “Improvement (ratio of % oral bioavailability to saline)” value in data set [1] (oral, formulation 6) is recorded as “NI”. In data set [1] (oral, formulation 7), the “Improvement (ratio of % oral bioavailability to saline)” value was “NI”. In data set [2], this compound came in with an AUC of 67167 ng·h/mL, a Cmax of 4080 ng/mL, a Mean clearance of 0.219 mL/min/kg and a T1/2 of 33.7 h. The “Volume of Distribution” value in data set [2] was found to be 0.627 L/kg.
Take `CCCCCOc1ccc(-c2ccc(-c3ccc(C(=O)NC4CC(O)C(NCC[N+](C)(C)C)NC(=O)C5C(O)C(C)CN5C(=O)C(C(C)O)NC(=O)C(C(O)C(O)c5ccc(O)cc5)NC(=O)C5CC(O)CN5C(=O)C(C(C)O)NC4=O)cc3)cc2)cc1` (centres unmarked) [Compound 37]: the “Improvement (ratio of % oral bioavailability to saline)” value in data set [1] (oral, formulation 1) is “NI”. Also, the “Improvement (ratio of % oral bioavailability to saline)” value in data set [1] (oral, formulation 3) was “NI”. Also, the “Improvement (ratio of % oral bioavailability to saline)” value in data set [1] (oral, formulation 5) is “NI”. Also, in data set [1] (oral, formulation 7), the “Improvement (ratio of % oral bioavailability to saline)” value is on record as “NI”. In data set [2], the AUC came to 46200 ng·h/mL, the maximum concentration (Cmax) stood at 2660 ng/mL, the Mean clearance was determined as 0.365 mL/min/kg and the T1/2 was found to be 27.6 h. For the same compound, in data set [2], the “Volume of Distribution” value was 0.874 L/kg.
With `CCCCCOc1ccc(-c2ccc(-c3ccc(C(=O)NC4CC(O)C(NCCNCCO)NC(=O)C5C(O)C(C)CN5C(=O)C(C(C)O)NC(=O)C(C(O)C(O)c5ccc(O)cc5)NC(=O)C5CC(O)CN5C(=O)C(C(C)O)NC4=O)cc3)cc2)cc1` (centres unmarked) [Compound 39], the “% BA in saline” value in data set [1] is listed as 5.15%. Further, the “Improvement (ratio of % oral bioavailability to saline)” value in data set [1] (oral, formulation 1) is reported as “NI”. In addition, in data set [1] (oral, formulation 5), the “Improvement (ratio of % oral bioavailability to saline)” value is recorded as “NI”. In data set [2], this compound had an AUC of 50800 ng·h/mL, a Cmax of 3630 ng/mL, a Mean clearance of 0.377 mL/min/kg and a T1/2 of 21.0 h. For the same compound, in data set [2], the “Volume of Distribution” value was 0.687 L/kg.
With `CCCCCOc1ccc(-c2cc(-c3ccc(C(=O)N[C@H]4C[C@@H](O)[C@@H](O)NC(=O)[C@@H]5[C@@H](O)[C@@H](C)CN5C(=O)[C@H]([C@H](O)CC(N)=O)NC(=O)[C@H]([C@H](O)[C@@H](O)c5ccc(O)c(OS(=O)(=O)O)c5)NC(=O)[C@@H]5C[C@@H](O)CN5C(=O)[C@H]([C@@H](C)O)NC4=O)cc3)no2)cc1` [Micafungin, micafungin] (X1-[Orn(4R-OH,5R-OH)]T[Hyp][hTyr(3S-OH,4S-OH,3'-OSO3H)][Gln(3R-OH)][Pro(3S-OH,4S-Me)]; lactam 1-C), the Half-life was 7 to 13 h in data set [3], 5 h in data set [4], 3 h in data set [5] and 10 to 17 h in data set [6].

As usually defined, the AUC is concentration integrated over time. As a reminder, the Cmax is the highest concentration seen after dosing.
